ChEMBL document CHEMBL1136975, “Synthesis and activity of quinolinylmethyl P1' alpha-sulfone piperidine hydroxamate inhibitors of TACE” (Bioorg Med Chem Lett, 2009)
pIC50: −log10 of the molar value.

Key:
[1] = target: 72 kDa type IV collagenase (Homo sapiens, UniProt P08253); assay: inhibition of human recombinant MMP2 catalytic domain
Homo sapiens [2] = organism: Homo sapiens; assay: Selectivity ratio of IC50 for human recombinant MMP13 catalytic domain to IC50 for human TACE catalytic domain
Homo sapiens [3] = organism: Homo sapiens; assay: Selectivity ratio of IC50 for human recombinant MMP2 catalytic domain to IC50 for human TACE catalytic domain
Blood = assay: Inhibition of LPS-induced TNFalpha production in human whole blood preincubated for 1 hrs before LPS challenge measured after 4 hrs by ELISA; assay type: functional, tissue-based
[4] = target: Disintegrin and metalloproteinase domain-containing protein 17 (Homo sapiens, UniProt P78536); assay: Inhibition of human TACE catalytic domain expressed in CHO cells by FRET assay; assay type: cell-based
Collagenase 3 = Collagenase 3 (Homo sapiens, UniProt P45452); assay: inhibition of human recombinant MMP13 catalytic domain
RAW264.7 = assay: Inhibition of LPS-induced TNFalpha production in mouse RAW264.7 cells preincubated for 1 hrs before LPS challenge measured after 4 hrs by ELISA; assay type: functional, cell-based
[5] = target: Matrix metalloproteinase-9 (Homo sapiens, UniProt P14780); assay: inhibition of human recombinant MMP9 catalytic domain
[6] = Selectivity for TACE over MMP1
[7] = Selectivity for TACE over MMP14
[8] = Selectivity for TACE over MMP9
[9] = Selectivity for TACE over MMP2
[10] = Selectivity for TACE over MMP13

Disintegrin and metalloproteinase domain-containing protein 17, sequence (P78536 whole entry, the tested form may be a part): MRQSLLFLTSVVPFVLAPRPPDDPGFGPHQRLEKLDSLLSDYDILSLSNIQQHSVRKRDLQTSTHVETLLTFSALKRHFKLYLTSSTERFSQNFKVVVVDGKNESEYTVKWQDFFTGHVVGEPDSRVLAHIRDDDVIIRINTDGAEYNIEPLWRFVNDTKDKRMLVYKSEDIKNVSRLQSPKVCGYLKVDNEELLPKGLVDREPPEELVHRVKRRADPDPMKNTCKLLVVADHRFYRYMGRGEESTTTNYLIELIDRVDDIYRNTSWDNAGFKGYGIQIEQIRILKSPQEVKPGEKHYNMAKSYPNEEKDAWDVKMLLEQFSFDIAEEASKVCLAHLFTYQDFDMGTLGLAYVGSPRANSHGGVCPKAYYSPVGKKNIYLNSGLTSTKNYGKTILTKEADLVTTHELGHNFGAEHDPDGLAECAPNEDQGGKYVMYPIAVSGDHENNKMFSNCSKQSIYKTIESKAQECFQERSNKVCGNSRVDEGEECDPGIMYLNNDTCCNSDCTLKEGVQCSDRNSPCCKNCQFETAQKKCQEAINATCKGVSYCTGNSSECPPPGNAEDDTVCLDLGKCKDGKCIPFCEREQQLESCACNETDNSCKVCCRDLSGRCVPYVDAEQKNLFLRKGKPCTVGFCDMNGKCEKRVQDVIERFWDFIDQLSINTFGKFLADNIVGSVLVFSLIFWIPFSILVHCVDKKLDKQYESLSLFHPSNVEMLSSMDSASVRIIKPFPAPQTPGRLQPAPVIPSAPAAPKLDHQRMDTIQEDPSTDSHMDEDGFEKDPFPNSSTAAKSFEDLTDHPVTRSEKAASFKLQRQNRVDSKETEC
72 kDa type IV collagenase, sequence (P08253 whole entry, the tested form may be a part): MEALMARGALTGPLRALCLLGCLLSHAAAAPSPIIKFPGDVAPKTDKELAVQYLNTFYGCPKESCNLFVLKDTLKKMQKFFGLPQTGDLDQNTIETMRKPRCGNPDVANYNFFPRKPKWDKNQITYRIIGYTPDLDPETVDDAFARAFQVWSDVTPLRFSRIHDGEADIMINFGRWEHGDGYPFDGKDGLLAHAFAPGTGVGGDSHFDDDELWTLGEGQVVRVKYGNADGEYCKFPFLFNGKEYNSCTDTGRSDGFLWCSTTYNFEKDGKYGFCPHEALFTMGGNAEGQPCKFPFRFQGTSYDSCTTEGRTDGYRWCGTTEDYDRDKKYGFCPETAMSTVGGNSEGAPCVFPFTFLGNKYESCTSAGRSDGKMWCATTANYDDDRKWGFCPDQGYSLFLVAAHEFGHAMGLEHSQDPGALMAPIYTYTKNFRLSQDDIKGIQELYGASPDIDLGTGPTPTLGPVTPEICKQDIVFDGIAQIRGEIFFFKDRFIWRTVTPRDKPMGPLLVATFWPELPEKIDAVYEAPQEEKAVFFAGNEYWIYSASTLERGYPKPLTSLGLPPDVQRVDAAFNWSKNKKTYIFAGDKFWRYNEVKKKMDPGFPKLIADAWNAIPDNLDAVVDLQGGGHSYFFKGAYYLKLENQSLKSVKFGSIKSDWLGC
Matrix metalloproteinase-9, sequence (P14780 whole entry, the tested form may be a part): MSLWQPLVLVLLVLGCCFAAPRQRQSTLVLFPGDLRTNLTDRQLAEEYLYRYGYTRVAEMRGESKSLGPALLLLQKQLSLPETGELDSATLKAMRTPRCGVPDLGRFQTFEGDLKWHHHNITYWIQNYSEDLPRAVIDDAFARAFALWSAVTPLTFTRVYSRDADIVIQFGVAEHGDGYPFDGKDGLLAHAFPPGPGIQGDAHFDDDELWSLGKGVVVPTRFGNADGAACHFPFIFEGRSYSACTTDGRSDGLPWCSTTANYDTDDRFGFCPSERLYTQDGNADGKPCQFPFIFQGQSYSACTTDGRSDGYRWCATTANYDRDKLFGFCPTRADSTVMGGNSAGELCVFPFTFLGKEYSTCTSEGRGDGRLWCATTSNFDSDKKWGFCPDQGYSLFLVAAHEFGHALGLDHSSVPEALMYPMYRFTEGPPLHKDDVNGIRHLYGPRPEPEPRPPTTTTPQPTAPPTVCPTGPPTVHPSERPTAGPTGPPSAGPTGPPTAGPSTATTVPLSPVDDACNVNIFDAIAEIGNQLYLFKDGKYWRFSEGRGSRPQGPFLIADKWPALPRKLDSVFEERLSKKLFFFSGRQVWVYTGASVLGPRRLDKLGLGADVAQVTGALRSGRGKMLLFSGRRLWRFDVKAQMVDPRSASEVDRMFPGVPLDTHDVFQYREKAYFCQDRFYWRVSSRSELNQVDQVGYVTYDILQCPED

pIC50 [1]	Ratio IC50 (Homo sapiens [2])	Ratio IC50 (Homo sapiens [3])	pIC50 (Blood)	pIC50 [4]	pIC50 (Collagenase 3)	pIC50 (RAW264.7)	pIC50 [5]	Selectivity ratio [6]	Selectivity ratio [7]	Selectivity ratio [8]	Selectivity ratio [9]	Selectivity ratio [10]	Compound
5.57	> 90	> 90	< 4.30	> 9.00	5.95	< 6.00							Cc1cc(COc2ccc(S(=O)(=O)C3(C(=O)NO)CCN(C(=O)OC(C)(C)C)CC3)cc2)c2ccccc2n1
5.85	> 90	> 90	5.89	8.70	6.36	7.17	< 4.92						Cc1cc(COc2ccc(S(=O)(=O)C3(C(=O)NO)CCN(C=O)CC3)cc2)c2ccccc2n1
			5.06	8.70		6.31		> 75	> 75	> 75	> 75	> 75	CC#CCOc1ccc(S(=O)(=O)CC2(C(=O)NO)CCN(C(C)=O)CC2)cc1
5.44	> 90	> 90	5.60	8.70	6.08	6.62							CCNC(=O)N1CCC(C(=O)NO)(S(=O)(=O)c2ccc(OCc3cc(C)nc4ccccc34)cc2)CC1
	< 10											< 5	CC#CCOc1ccc(S(=O)(=O)C2(C(=O)NO)CCN(C(C)=O)CC2)cc1
6.84			< 4.30	7.19	7.10	< 6.00							Cc1cc(COc2ccc(S(=O)(=O)C3(C(=O)NO)CCN(Cc4ccc(Cl)c(Cl)c4)CC3)cc2)c2ccccc2n1
			4.85			6.21							CC#CCOc1ccc(S(=O)(=O)CC2(C(=O)NO)CCN(C(=O)OC(C)(C)C)CC2)cc1
< 4.82	> 90	> 90	5.62	7.48	5.06	6.48	< 4.92						Cc1cc(COc2ccc(S(=O)(=O)C3(C(=O)NO)CCNCC3)cc2)c2ccccc2n1
4.82	> 90	> 90	5.62	7.96	5.84	6.90							Cc1cc(COc2ccc(S(=O)(=O)C3(C(=O)NO)CCN(C)CC3)cc2)c2ccccc2n1
5.76	> 90	> 90	5.55	8.92	6.41	6.46							Cc1cc(COc2ccc(S(=O)(=O)C3(C(=O)NO)CCN(S(C)(=O)=O)CC3)cc2)c2ccccc2n1
5.67	> 90	> 90	4.85	8.00	6.03	< 6.00							Cc1cc(COc2ccc(S(=O)(=O)C3(C(=O)NO)CCN(S(=O)(=O)C(C)C)CC3)cc2)c2ccccc2n1
5.91	> 90	> 90	4.85	8.70	6.38	< 6.00							Cc1cc(COc2ccc(S(=O)(=O)C3(C(=O)NO)CCN(C(=O)C(C)C)CC3)cc2)c2ccccc2n1
			5.60		7.23	6.40							CC#CCOc1ccc(S(=O)(=O)CC2(C(=O)NO)CCN(C(=O)c3ccccc3)CC2)cc1
	< 10												CC#CCOc1ccc(S(=O)(=O)C2(C(=O)NO)CCNCC2)cc1
	< 10												CC#CCOc1ccc(S(=O)(=O)C2(C(=O)NO)CCN(C(=O)c3ccccc3)CC2)cc1
5.80	> 1000	> 1000		9.00	5.72								CC#CCOc1ccc(S(=O)(=O)CC2(C(=O)NO)CCNCC2)cc1
	< 10			6.83	7.14								CC#CCOc1ccc(S(=O)(=O)C2(C(=O)NO)CCN(Cc3ccc(Cl)c(Cl)c3)CC2)cc1
	< 10												CC#CCOc1ccc(S(=O)(=O)C2(C(=O)NO)CCN(C(=O)OC(C)(C)C)CC2)cc1

Compound	pIC50 [1]	Ratio IC50 (Homo sapiens [2])	Ratio IC50 (Homo sapiens [3])	pIC50 (Blood)	pIC50 [4]	pIC50 (Collagenase 3)	pIC50 (RAW264.7)	pIC50 [5]	Selectivity ratio [6]	Selectivity ratio [7]	Selectivity ratio [8]	Selectivity ratio [9]	Selectivity ratio [10]
Cc1cc(COc2ccc(S(=O)(=O)C3(C(=O)NO)CCN(Cc4ccncc4)CC3)cc2)c2ccccc2n1	6.07			4.96	8.05	6.58	6.42						
CC(=O)N1CCC(C(=O)NO)(S(=O)(=O)c2ccc(OCc3cc(C)nc4ccccc34)cc2)CC1	5.16	> 90	> 90	5.82	9.00	5.87	6.41						
CCN(CC)C(=O)N1CCC(C(=O)NO)(S(=O)(=O)c2ccc(OCc3cc(C)nc4ccccc34)cc2)CC1	7.02			< 4.30	8.52	7.24	< 6.00						
Cc1cc(COc2ccc(S(=O)(=O)C3(C(=O)NO)CCN(C(=O)c4ccccc4)CC3)cc2)c2ccccc2n1	6.29	> 90	> 90	4.55	9.00	6.69	< 6.00						
Cc1cc(COc2ccc(S(=O)(=O)C3(C(=O)NO)CCN(C(=O)c4ccncc4)CC3)cc2)c2ccccc2n1	5.96	> 90	> 90	5.72	8.70	6.46	6.64						
